SMILES strings stand for the structures.

Data set [1] in a line: Stability in rat plasma (UHPLC-MS method validation, S4 Table). Format: in vitro ADME. As to the method: A Dionex Ultimate 3000 RSLC system (Thermofisher) combined with an Accucore aQ C18 column (150 mm×2.1 mm, 2.6 μm, Thermo fisher) was used in the sample separation process. The separation speed was set at […] for all gradients. 1 μL of injection volume and a constant temperature of (25 ± 1°C were set for the column. The eluents were A, water with 0.1% formic acid (v/v) and B, methanol; the gradient program was as follows: 0–6 min, 8–40% B; 6–8 min, 40–100% B; 8–10 min, 100% B; 10–11 min, 100–8% B; 11–13 min, 8% B.
Heated electro-spray ionization (HE-SI) was paired with a Q-Orbitrap MS in the MS analysis. The flow rate of auxiliary, sheath and sweep gas was set at 35, 10, and 1 (arbitrary unit), respectively. A full MS-ddMS^2 mode was used to perform the analysis. The damping gas in the C-trap and nitrogen was used to stabilize the spraying. Temperatures of 350°C and 320°C were set and kept for the auxiliary gas heater and capillary. Under negative mode, 3.0 kV was adopted for the spray voltage, 60 V was used for the S-lens RF level, 50 ms was used for the maximum injection time, and 3.0 ^e6 was set as the automatic gain control target. Full MS-ddMS^2 scan ranged from 150.0000 to 800.0000 m/z. Precise molecular weight […] was used for qualitative analysis, the corresponding peak area was used for quantitative analysis, and MS^2 fragments were used for further qualitative analysis.
Plasma samples were thawed at room temperature, and 100 μL was added to an equal volume of mass spectrometry grade methanol, vortexed for 1 min, and centrifuged again at 13000 rpm for 5 min. 100 μL of the supernatant were added to 100 μL of 200 ng/mL mebendazole IS solution, vortexed for 1 min, and centrifuged again at 13000 rpm for 5 min. The resulting sample was injected by UHPLC-HR-ESI-MS with an injection volume of 1 μL. The pharmacokinetic study of SD rats was performed according to the standards recommended by the "Guidelines for the Care and Use of Laboratory Animals" (Animal Laboratory Resources Institute, 1995) and was approved by the Institutional Animal Care and Use Committee of Qinghai University.
Supplementary file pntd.0011031.s004.xlsx: S4 Table The stability for the determination of total alkaloid in rat plasma. (XLSX) Click here for additional data file.

For a further data set, the system named is alveolar echinococcosis. The arrangement: method as in PMID 18938096. The following applies: AE patients; cited from earlier work.
Data set [2] has as its system secondary hepatic alveolar echinococcosis (E. multilocularis). The data set can be described thus: In vivo therapeutic efficacy in an in-situ AE animal model (lesion volume). Particulars: AE model rats. As for the experimental part: Six-week-old […] weighing 200-250g were purchased from a market (Weitong Lihua Laboratory Animal Technology Co., Ltd, Beijing, China). The rats were injected with protoscolex (PSC) suspension (1000–2000) PSCs/mL×0.1 mL/each using the open-abdominal direct liver puncture method. The modeling quality was confirmed by Mindray’s Resona7 color Doppler ultrasound system. The lesion volume was calculated by the length (X) and width (Y) of its ultrasound transverse section and the width (Z) of its longitudinal section, X·Y·Z. Rats with relatively uniform lesion volumes were selected as model animals for further experiments (Fig 1). All animal-related experiments were approved by the Animal Care and Utilization Committee (IACUC) of Qinghai University. The animals were housed in a room with controlled temperature (25 ± 2°C) with light-cycled (12 h light/dark cycle). Food and water were provided ad libitum.
At the 16th week after establishing an experimental secondary AE in rats, we divided the model rats into three groups. The first is the control group, with six infected rats were received with CMC-Na of 0.9% saline. In the second group, rats were received with 0.2 mL of Albenda suspension. In the third group, rats were received with 0.2 mL of ABZ-BA suspension. The three groups were administered by gavage with the dosage of 25 mg/kg/d, which was calculated according to the equivalent dose convert ratio between humans and animals based on the surface body area of humans. After a 30-day, once-daily oral administration, the liver tissue lesions were obtained and weighed to evaluate the cyst inhibition rate after one month of administration.

Data set [3] is described as follows: Determination of equilibrium solubility (HPLC). Particulars: 48 h, pH 7.4. The data set is classed as physicochemical. As for the experimental part:
An excess amount of ABZ-BA and ABZ were equilibrated in sodium phosphate buffer, pH 7.4, at 37°C for 48 h. The supernatant was separated from excess solid in solution by ultracentrifugation at 40000 rpm. Subsequently, the supernatant was diluted, and the solution concentration was determined using high-performance liquid chromatography (HPLC) (Shimadzu LC- 20AT, Kyoto, Japan). The chromatographic separation was performed with Diamonsil C18 (4.6×150 mm, 5 μm, Waters, Massachusetts, USA). ABZ-BA and ABZ were detected by ultraviolet (UV) absorbance detection at a wavelength of 240 nm. The mobile phase was methanol /water (70/30 v/v) and the flow rate was 1 mL/min. The injection volume was 20 μL.

For data set [4], the system named is protoscolex (PSCs). Kind of data set: Alkaline phosphatase in supernatant of PSC culture medium. Particulars: 5 days after treatment, same concentration as ABZ / ABZ-SO. The data set is classed as cell-based, E. multilocularis.
A further data set relates to Hep-G2 cell line. The data set can be described thus: Cytotoxicity in Hep-G2 cell line. The data set is classed as cell-based, human. Particulars: ABZ-BA with different carbon chain lengths (C1, C4 linker), data not shown. From the text: Since this part of data will be published in other manuscripts, it is not shown in this manuscript.
The subject of data set [5] is protoscolex (PSCs). The data set can be described thus: Caspase 3 in supernatant of PSC culture medium. Particulars: 5 days after treatment. Format: cell-based, E. multilocularis.
Setting [6] is: nominal 1.58 (ABZ-BA) / 1.57 (ABZ) ng/mL.
The mark [7] stands for this setting: nominal 25.25 (ABZ-BA) / 25.18 (ABZ) ng/mL.
The mark [8] stands for this setting: nominal 101 (ABZ-BA) / 100.78 (ABZ) ng/mL.
Where [9] appears, read: after 1 month of oral administration.

`CCCSc1ccc2nc(NC(=O)OC)[nH]c2c1` [ABZ, Albendazole]: in data set [1] (setting [6]), the “Measured (mean ± SD), 4℃ for 24 h” value is 1.53 ± 0.08 ng/mL; the “Measured (mean ± SD), Room temperature for 24 h” value stood at 1.56 ± 0.13 ng/mL; the “Measured (mean ± SD), Three freeze” value is on record as 1.59 ± 0.15 ng/mL; the “Measured (mean ± SD), at -80℃ for 15 days” value worked out at 1.56 ± 0.07 ng/mL. In data set [1] (setting [7]), the “Measured (mean ± SD), 4℃ for 24 h” value was 25.65 ± 0.53 ng/mL; the “Measured (mean ± SD), Room temperature for 24 h” value amounted to 24.87 ± 0.34 ng/mL; the “Measured (mean ± SD), Three freeze” value is listed as 25.56 ± 0.56 ng/mL; the “Measured (mean ± SD), at -80℃ for 15 days” value stood at 25.34 ± 1.18 ng/mL. Besides, in data set [1] (setting [8]), the “Measured (mean ± SD), 4℃ for 24 h” value is recorded as 104.63 ± 2.81 ng/mL; the “Measured (mean ± SD), Room temperature for 24 h” value was 98.90 ± 3.53 ng/mL; the “Measured (mean ± SD), Three freeze” value amounted to 106.20 ± 1.36 ng/mL; the “Measured (mean ± SD), at -80℃ for 15 days” value is 108.56 ± 1.18 ng/mL. In the data set with alveolar echinococcosis, the “clinical improvement after administration” value is listed as “two-thirds of AE patients show moderate improvement”.

As for `CCCSc1ccc2[nH]c(NC(=O)NCCCCOC(=O)CCC(C)C3CCC4C5C(O)CC6CC(O)CCC6(C)C5CC(O)C34C)nc2c1` (stereo not shown) [ABZ-BA], the lesion volume in data set [2] (25 mg/kg/d by gavage, after 4 weeks of administration, n = 6, ultrasound X·Y·Z) is listed as 0.35±0.18 cm^3. Besides, in data set [2] (setting [9]), the “effect of ABZ-BA group relative to Albenda” value stood at 2.7 fold and the therapeutic effect result is listed as “significant therapeutic effect”. Further, in data set [3], the “equilibrium solubility of ABZ-BA relative to ABZ in vitro” value is given as 4 fold and the “solubility of ABZ-BA relative to ABZ” value is recorded as “about 12 times”. In the data set with protoscolex (PSCs) [4], the “ALP in supernatant of PSC culture medium vs positive control group” value is recorded as “no significant difference”. The “cytotoxicity compared with ABZ” value in the data set with Hep-G2 cell line is listed as “the same cytotoxicity as ABZ”. Further, in the data set on protoscolex (PSCs) [5], the “content of caspase 3 in supernatant of PSC culture medium vs positive control group” value is reported as “significantly higher”. Also, in the data set with protoscolex (PSCs) [5] (13.45-53.8 μg/mL), the “apoptotic effect on PSCs, dependence on concentration” value is recorded as “concentration-dependent”.
